Assay results: US7855228B2, “Antibiotics targeting MreB” (The Board of Trustees of the Leland Stamford Junior …, priority 2005, dated 2010)

Legend:
[1] = test system: S. typhimurium; assay: Induction of spherical cells; assay type: cell-based
Text: (§1) A22 was effective against Gram-negative rod-shaped bacteria.

[2] = test system: B. subtilis; assay: Induction of spherical cells; assay type: cell-based
Text: as §1

[3] = test system: P. putida; assay: Induction of spherical cells; assay type: cell-based
Text: as §1

[4] = molecular target: T1, MreB (Caulobacter vibrioides, UniProt A0A0H3C7V4); assay: Chromatin immunoprecipitation with anti-MreB; assay type: cell-based, Caulobacter crescentus; conditions: in the presence of A22
T1 construct: endogenous in cells; host or cells: Caulobacter crescentus cells (formaldehyde-crosslinked extracts)
Text: MreB Associates with Origin-Proximal Loci. The specific inhibition of origin movement by A22 raises the possibility that the duplicated origin moves to the opposite pole through a specific physical association with MreB, much as eukaryotic centromeres are segregated by association with microtubules. We sought to detect such an association in vivo by chromatin immunoprecipitation (ChIP). Following previously established protocols, Caulobacter extracts were ChIP'ed with polyclonal antisera raised against purified Caulobacter MreB. PCR was then used to amplify specific segments of the Caulobacter chromosome. […] We detected a faint signal with primers to the dnaA promoter located 6 kb to the right of the origin (FIG. 8), possibly reflecting the fact that dnaA is at the edge of the MreB binding region.
Chromatin Immunoprecipitations. Formaldehyde-crosslinked chromatin immunoprecipitation was performed as described previously. The anti-MreB antibody was raised by cloning the mreB coding sequence into the pET28a vector (Novagen). The resulting His6-tagged MreB was overexpressed in BL21(DE3)/pLysS E. coli and purified using Qiagen Ni2+-NTA agarose as described previously. Two milligrams of purified His6-MreB was used to immunize two rabbits (Josman Laboratories, Napa, Calif.). Oligonucleotide primer sequences for the regions PCR amplified are available upon request.

T1 sequence (A0A0H3C7V4 whole entry): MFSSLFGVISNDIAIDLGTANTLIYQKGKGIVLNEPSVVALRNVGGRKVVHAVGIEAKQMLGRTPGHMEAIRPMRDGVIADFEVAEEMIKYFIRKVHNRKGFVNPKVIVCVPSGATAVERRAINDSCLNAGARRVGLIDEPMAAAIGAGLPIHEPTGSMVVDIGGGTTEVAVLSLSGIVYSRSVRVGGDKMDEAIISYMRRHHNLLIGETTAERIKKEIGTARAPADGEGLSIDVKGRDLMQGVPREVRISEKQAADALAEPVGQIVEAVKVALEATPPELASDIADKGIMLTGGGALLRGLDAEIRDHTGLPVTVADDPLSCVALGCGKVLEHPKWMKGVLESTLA

SMILES: N=C(N)SCc1ccc(Cl)c(Cl)c1 [Compound 1, S-(3,4-dichlorobenzyl)isothiourea]
- Induction of spherical cells in S. typhimurium [1]: induced spherical cells
- Induction of spherical cells in B. subtilis [2]: did not
- Induction of spherical cells in P. putida [3]: induced spherical cells
- Origin coimmunoprecipitation with MreB [4]: significantly reduced, though not abolished
